{"source": "patent US20050137222A1", "about": "“Treatment of insomnia in human patients” (H. Lundbeck A/S, priority 2003, published 2005)", "key": {"[1]": {"test_system": "adult subjects with primary insomnia", "test": "Polysomnograph (PSG) study in adult subjects with primary insomnia", "assay_type": "in vivo, human", "method": "(§1) Effect is confirmed for short-term treatment in studies using acute treatment in healthy subjects exposed to a phase advance model. Assessment of effect on insomnia during intermediate term treatment duration is performed in primary insomnia subjects using treatment duration up to 4 weeks. Long term or chronic treatment is assessed in 12 month safety studies. Subject populations include primary insomnia subjects with age range 18-65 yrs (adults) and 65 and above (elderly).\n(§2) Sleep maintenance is measured by either of parameters wakefulness after sleep onset, number of awakenings after sleep onset or total sleep time. […] In these studies, the effect was also confirmed by the subjects own feelings of the sleep initiation. Based both on PSG and on subjective diary recording, gaboxadol doses of 5 to 15 mg are highly preferred to achieve effect in adults and elderly (gaboxadol was administered from ½ hour before bedtime up to immediately before going to bed)."}, "[2]": {"test_system": "human subjects", "test": "EEG slow wave sleep and spectral analysis in the clinical studies", "assay_type": "in vivo", "conditions": "similar effect range as for slow wave sleep", "excerpt": "Moreover, gaboxadol induced a dose-dependent increase in duration of slow wave sleep (SWS), that is, stages 3 and 4, which is considered the deepest stage of sleep. The effect ranged between +15 and 46% compared to placebo."}, "[3]": {"test_system": "healthy human subjects", "conditions": "cited from earlier work"}, "[4]": {"test_system": "animals", "conditions": "cited from earlier work"}, "[5]": {"test_system": "adult (18-65 yrs) primary insomnia subjects", "test": "3 week placebo controlled parallel group outpatient study of daytime performance (VAS, Sheehan disability scale)", "assay_type": "in vivo, human", "conditions": "doses 5, 10 and 15 mg, about ½ hour before bedtime; 3 weeks; effect more pronounced during week 2 and 3", "method": "The daytime performance (used interchangeably with daytime function) in adult (18-65 yrs) primary insomnia subjects (Diagnostic and Statistical Manual of Mental Disorders—Fourth Edition, […]) has been assessed in a 3 week placebo controlled parallel group, outpatient study. The performance was measured with standardized questions using a 100 point Visual Analogue Scale (VAS). The questions asked for subjects to report on their daytime ability to function, tiredness, energy and relaxedness. Subject responses were recorded in a diary in the evening on the day after each treatment night (gaboxadol was administered about ½ hour before bedtime). Moreover, daytime function was recorded once weekly using the Sheehan disability scale (Sheehan et al., 1996, “The measurement of disability,” International Clinical Psychopharmacology 11 (suppl. 3), 89-95)."}, "[6]": {"test_system": "healthy subjects exposed to a phase advance model", "test": "Phase advance model in healthy subjects (PSG and subjective recording)", "assay_type": "in vivo, human", "method": "as §1, §2"}}}
{"smiles": "Oc1noc2c1CCNC2", "note": "[gaboxadol, 4,5,6,7-tetrahydroisoxazolo(5,4-c)pyridin-3-ol]", "values": [{"measurement": "sleep maintenance as measured by polysomnograph (wakefulness after sleep onset, number of awakenings after sleep onset or total sleep time)", "setting": "[1]; adult subjects with primary insomnia, oral, from ½ hour before bedtime up to bedtime", "result": "improves sleep maintenance"}, {"measurement": "sleep initiation", "setting": "[1]; primary insomnia subjects, confirmed by subjects' own feelings", "result": "facilitated sleep initiation"}, {"measurement": "slow wave activity in EEG spectral analysis", "setting": "[2]", "result": "increase of slow wave activity"}, {"measurement": "deep sleep", "setting": "[3]", "result": "promote deep sleep"}, {"measurement": "influence on REM sleep", "setting": "[3]", "result": "no disrupting influence on REM sleep"}, {"measurement": "sleep maintenance", "setting": "[3]", "result": "increase sleep maintenance"}, {"measurement": "nonREMS amount and nonREMS/REMS episode duration", "setting": "[4]", "result": "increasing total amount of nonREMS and lengthening the duration of the nonREMS and REMS episodes"}, {"measurement": "daytime performance (weekly means of VAS questions and Sheehan disability scale)", "setting": "[5]", "result": "significantly improve daytime performance"}, {"measurement": "sleep maintenance as measured by polysomnograph (wakefulness after sleep onset, number of awakenings after sleep onset or total sleep time)", "setting": "[6]; healthy subjects, phase advance model", "result": "improves sleep maintenance"}, {"measurement": "subjects' own perception of the sleep maintenance effect", "setting": "[6]; healthy subjects, phase advance model, subjective", "result": "decreased wakefulness"}, {"measurement": "lowest dose at which the sleep maintenance effect was observed", "setting": "[6]; oral, study not clearly specified in the text", "result": "about 5 mg per day"}, {"measurement": "sleep initiation", "setting": "[6]; subjects in a phase advance model, confirmed by subjects' own feelings", "result": "facilitated sleep initiation"}]}
